Source: BigSolDB 2.1

CS(=O)(=O)c1ccc(F)cc1
Settings	solubility (mole fraction)
in acetone, 290.53 K	0.226
in acetone, 298.3 K	0.282
in acetone, 304.2 K	0.331
in chloroform, 288.4 K	0.229
in chloroform, 293.25 K	0.262
in chloroform, 299.93 K	0.312
in chloroform, 305 K	0.352
in ethanol, 291.07 K	0.0162
in ethanol, 297.34 K	0.0302
in ethanol, 303.07 K	0.0471
in ethanol, 308.66 K	0.0744
in ethyl acetate, 293.28 K	0.189
in ethyl acetate, 299.67 K	0.23
in ethyl acetate, 305.75 K	0.278
in ethyl acetate, 313.05 K	0.35
in toluene, 290.84 K	0.0422
in toluene, 298.86 K	0.0744
in toluene, 304.15 K	0.105
in toluene, 306.87 K	0.125
